Data as given in patent publication US20240067657A1, “AMIDO-SUBSTITUTED PYRIDYL COMPOUNDS AND METHODS OF USE THEREOF FOR THE TREATMENT OF HERPESVIRUSES” (Merck Sharp & Dohme LLC, priority 2020, published 2024).
Like-named read-outs stand apart in the source and are kept apart here.

Experiments:
[1] = molecular target: T1, Human cytomegalovirus DNA polymerase (Human cytomegalovirus, UniProt P08546); assay: HCMV polymerase assay (AlphaLISA, IC50); format: biochemical; details: polymerase assay of Example 190
T1 construct: made in house; host or cells: SF21 insect cells (baculovirus vector)
Summary of the method: (§1)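 Baculovirus-expressed polymerase (HCMV 0.2 nM, VZV 0.4 nM final) preincubated 30 min at room temperature with compound in pH 7.5 HEPES buffer; reaction started with 1.6 nM DIG-primer/template and nM dNTPs including biotin-dUTP, run 60 min at 37° C. Incorporation detected by AlphaLISA; IC50 from 4-parameter fit.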

[2] = system: VZV in MeWo or MRC5 cells; assay: Viral qPCR assay VZV (V0/V1, V2/V3), EC50; format: cell-based
Summary of the method: (§2)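 Infected cells added to compounds (10-point 3-fold series), ~72 h at 37 °C, then lysed; viral genomes by TaqMan qPCR against plasmid standard, normalized to PPIA in V0/V1 only, EC50 from 4-parameter fit. HCMV AD169, 0.05-0.1 pfu/cell, ± 50% FBS; VZV 0.04-0.1 pfu/cell; HSV-1 F 0.0005-0.004 pfu/cell.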

[3] = system: HCMV Strain AD169 in MRC-5 cells; assay: Viral qPCR assay HCMV (V0/V1, V2/V3), EC50; format: cell-based
Summary of the method: as §2

[4] = system: HSV-1 Strain F in Vero or MRC5 cells; assay: Viral qPCR assay HSV-1 (V0/V1, V2/V3), EC50; format: cell-based
Summary of the method: as §2

[5] = molecular target: T2, varicella zoster virus DNA polymerase (Varicella-zoster virus, UniProt P09252); assay: VZV polymerase assay (AlphaLISA, IC50); format: biochemical; details: polymerase assay of Example 190
T2 construct: made in house; host or cells: SF21 insect cells (baculovirus vector)
Summary of the method: as §1

[6] = Human alphaherpesvirus 3, MRC5, MRC5 cells, 10%, read-out: VZV Cell (EC50) MRC5 10%
[7] = Human betaherpesvirus 5, AD169, MRC5, viral qPCR assay of Example 191, read-out: HCMV Cell (EC50)
[8] = Human alphaherpesvirus 1, MRC5, MRC5 cells, 10%, read-out: HSV1 Cell (EC50) MRC5 10%
[9] = Human alphaherpesvirus 3, MeWo, MEWO cells, 10%, read-out: VZV Cell (EC50) MEWO 10%
[10] = Human alphaherpesvirus 1, Vero, VERO cells, 10%, read-out: HSV1 Cell (EC50) VERO 10%

T2 sequence (P09252 whole entry): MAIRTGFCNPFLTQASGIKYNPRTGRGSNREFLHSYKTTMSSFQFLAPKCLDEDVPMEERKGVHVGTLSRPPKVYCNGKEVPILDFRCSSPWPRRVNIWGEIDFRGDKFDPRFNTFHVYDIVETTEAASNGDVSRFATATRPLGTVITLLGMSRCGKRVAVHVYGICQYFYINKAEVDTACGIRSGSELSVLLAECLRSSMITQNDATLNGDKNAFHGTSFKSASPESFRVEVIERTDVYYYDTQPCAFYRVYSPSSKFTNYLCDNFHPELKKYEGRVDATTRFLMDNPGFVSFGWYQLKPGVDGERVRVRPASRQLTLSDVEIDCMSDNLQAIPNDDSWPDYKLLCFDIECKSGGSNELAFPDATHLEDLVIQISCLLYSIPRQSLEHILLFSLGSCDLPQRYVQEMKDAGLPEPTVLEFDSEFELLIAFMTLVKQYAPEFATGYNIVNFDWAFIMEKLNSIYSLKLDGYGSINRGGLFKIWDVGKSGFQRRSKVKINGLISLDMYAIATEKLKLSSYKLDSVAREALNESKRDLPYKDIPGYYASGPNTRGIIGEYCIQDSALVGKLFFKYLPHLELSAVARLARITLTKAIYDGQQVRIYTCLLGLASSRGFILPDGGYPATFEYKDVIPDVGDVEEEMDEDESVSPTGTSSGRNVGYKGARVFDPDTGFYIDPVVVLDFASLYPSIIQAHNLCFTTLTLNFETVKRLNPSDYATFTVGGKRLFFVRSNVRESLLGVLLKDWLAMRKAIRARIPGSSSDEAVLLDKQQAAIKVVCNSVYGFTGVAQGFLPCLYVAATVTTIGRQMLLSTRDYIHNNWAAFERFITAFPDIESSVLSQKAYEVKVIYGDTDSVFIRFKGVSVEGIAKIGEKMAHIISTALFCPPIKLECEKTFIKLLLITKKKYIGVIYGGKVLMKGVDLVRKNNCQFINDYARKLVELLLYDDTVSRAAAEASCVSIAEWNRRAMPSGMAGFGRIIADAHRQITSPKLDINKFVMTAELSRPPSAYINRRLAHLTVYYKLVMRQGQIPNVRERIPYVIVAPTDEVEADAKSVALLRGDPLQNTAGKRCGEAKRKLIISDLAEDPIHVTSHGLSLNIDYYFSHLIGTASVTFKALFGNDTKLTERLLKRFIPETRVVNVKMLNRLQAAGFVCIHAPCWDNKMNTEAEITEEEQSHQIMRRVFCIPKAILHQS
T1 sequence (P08546 whole entry): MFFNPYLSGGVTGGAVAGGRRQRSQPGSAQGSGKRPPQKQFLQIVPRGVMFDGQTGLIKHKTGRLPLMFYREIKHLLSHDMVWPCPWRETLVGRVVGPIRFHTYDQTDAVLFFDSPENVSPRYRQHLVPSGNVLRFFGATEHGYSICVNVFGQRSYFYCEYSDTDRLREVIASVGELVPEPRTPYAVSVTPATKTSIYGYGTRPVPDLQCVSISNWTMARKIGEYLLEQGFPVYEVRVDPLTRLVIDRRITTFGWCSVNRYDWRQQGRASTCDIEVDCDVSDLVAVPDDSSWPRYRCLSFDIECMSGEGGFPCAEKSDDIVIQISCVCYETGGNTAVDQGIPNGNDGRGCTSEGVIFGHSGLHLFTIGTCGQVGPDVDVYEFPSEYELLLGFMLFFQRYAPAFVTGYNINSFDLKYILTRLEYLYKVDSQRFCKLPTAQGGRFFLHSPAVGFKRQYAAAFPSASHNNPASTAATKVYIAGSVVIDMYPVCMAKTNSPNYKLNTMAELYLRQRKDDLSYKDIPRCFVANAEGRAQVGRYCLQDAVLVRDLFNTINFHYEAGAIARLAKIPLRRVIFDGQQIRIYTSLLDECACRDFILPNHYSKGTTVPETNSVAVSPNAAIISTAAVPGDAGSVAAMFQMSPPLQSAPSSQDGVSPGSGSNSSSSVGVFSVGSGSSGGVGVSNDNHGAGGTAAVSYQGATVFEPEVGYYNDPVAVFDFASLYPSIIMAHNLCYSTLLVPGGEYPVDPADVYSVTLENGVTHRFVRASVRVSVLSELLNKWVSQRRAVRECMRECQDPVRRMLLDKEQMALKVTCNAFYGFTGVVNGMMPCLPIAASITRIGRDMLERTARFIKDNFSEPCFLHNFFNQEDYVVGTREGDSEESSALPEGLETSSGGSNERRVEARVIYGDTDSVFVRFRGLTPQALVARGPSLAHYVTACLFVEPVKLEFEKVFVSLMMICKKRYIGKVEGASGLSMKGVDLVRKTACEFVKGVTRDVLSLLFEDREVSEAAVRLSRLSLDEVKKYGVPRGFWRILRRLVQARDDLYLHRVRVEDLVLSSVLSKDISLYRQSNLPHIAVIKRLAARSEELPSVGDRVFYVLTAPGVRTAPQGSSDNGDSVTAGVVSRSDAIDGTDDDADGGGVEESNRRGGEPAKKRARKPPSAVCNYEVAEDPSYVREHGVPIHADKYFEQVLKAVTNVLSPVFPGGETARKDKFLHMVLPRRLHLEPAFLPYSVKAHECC

SMILES | IC50 [1] | IC50 [5] | EC50 [2, 6] | EC50 [3, 7] | EC50 [4, 8] | EC50 [2, 9] | EC50 [4, 10] | EC50 ([2]; Human alphaherpesvirus 3, MeWo, read-out: VZV Cell (EC50) MEWO 10%) | EC50 ([3]; Human betaherpesvirus 5, AD169, MRC5, read-out: HCMV Cell (EC50)) | EC50 ([4]; Human alphaherpesvirus 1, Vero, read-out: HSV1 Cell (EC50) VERO 10%)
O=C(NCc1ccc([N+](=O)[O-])cc1)c1cc(O[C@H]2CCN3C(=O)OC[C@@H]3C2)c(-c2cnn(C(F)F)c2)cn1 [Compound 82] | 16 nM | 9.02 nM | 243 nM | 90.5 nM | 125 nM | – | – | – | – | –
O=C(NCc1ccc(Cl)nc1)c1cc(O[C@H]2CCN3C(=O)OC[C@@H]3C2)c(-c2cnn(C(F)F)c2)cn1 [Compound 86] | 189 nM | 20.6 nM | – | 754 nM | – | 825 nM | 1450 nM | – | – | –
O=C(NCc1ccc(F)c(F)c1F)c1cc(O[C@H]2CCN3C(=O)OC[C@@H]3C2)c(-c2cnn(C(F)F)c2)cn1 [Compound 87] | 86.3 nM | 38.8 nM | – | 626 nM | – | 441 nM | 378 nM | – | – | –
Cn1cc(-c2cnc(C(=O)NCc3ccc(F)c(F)c3F)cc2O[C@H]2CCN3C(=O)OC[C@@H]3C2)cn1 [Compound 94] | 31.7 nM | 21.4 nM | 427 nM | 111 nM | 412 nM | 155 nM | 368 nM | – | – | –
Cn1cc(-c2cnc(C(=O)NCc3ccc(Cl)c(F)c3)cc2O[C@H]2CCN3C(=O)OC[C@@H]3C2)cn1 [Compound 96] | 5.46 nM | 3.36 nM | 132 nM | 86.3 nM | 71 nM | 53.6 nM | 118 nM | – | – | –
Cc1ccn(-c2cnc(C(=O)NCc3ccc(Cl)cc3)cc2O[C@H]2CCN3C(=O)OC[C@@H]3C2)n1 [Compound 106] | 224 nM | 197 nM | – | 923 nM | – | 288 nM | 575 nM | – | – | –
COC(C)(C)Cc1cnc(C(=O)NCc2ccc(Cl)cc2)cc1O[C@H]1CCN2C(=O)OC[C@@H]2C1 [Compound 107] | 24 nM | 3.07 nM | 582 nM | 549 nM | 473 nM | – | – | – | – | –
O=C(NCc1ccc(Cl)cc1)c1cc(O[C@H]2CCN3C(=O)OC[C@@H]3C2)c(C2CC(F)(F)C2)cn1 [Compound 108] | 45.1 nM | 26.4 nM | 1620 nM | 844 nM | 646 nM | – | – | – | – | –
COC1CC(c2cnc(C(=O)NCc3ccc(Cl)cc3)cc2O[C@H]2CCN3C(=O)OC[C@@H]3C2)C1 (stereo partly drawn) [Compound 110] | 22 nM | 4.84 nM | 1520 nM | 354 nM | 998 nM | – | – | – | – | –
O=C(NCc1ccc(Cl)cc1)c1cc(O[C@H]2CCN3C(=O)OC[C@@H]3C2)c(CCO)cn1 [Compound 112] | 54.4 nM | 31.1 nM | – | 635 nM | – | 482 nM | 3260 nM | – | – | –
O=C(NCc1ccc(Cl)cc1)c1cc(O[C@H]2CCN3C(=O)OC[C@@H]3C2)c(N2CC(F)C2)cn1 [Compound 125] | 37.7 nM | 20 nM | 720 nM | 198 nM | 531 nM | – | – | – | – | –
N#Cc1cnc(C(=O)NCc2ccc(Cl)cc2)cc1O[C@H]1CCN2C(=O)OC[C@@H]2C1 [Compound 127] | 30 nM | 28.3 nM | 1110 nM | 349 nM | 800 nM | 239 nM | 234 nM | – | – | –
COc1cnc(C(=O)NCc2ccc(Cl)cc2)cc1O[C@H]1CCN2C(=O)OC[C@@H]2C1 [Compound 129] | 54 nM | 18 nM | – | – | – | – | – | 278 nM | 546 nM | 339 nM
Cc1c[n+]([O-])c(C(=O)NCc2ccc(Cl)cc2)cc1O[C@H]1CCN2C(=O)OC[C@@H]2C1 [Compound 130] | 89.1 nM | 43.4 nM | – | 557 nM | – | 252 nM | 496 nM | – | – | –

Continued by falling IC50 [1], values first:

IC50 [1] | IC50 [5] | SMILES | EC50 [2, 6] | EC50 [3, 7] | EC50 [4, 8] | EC50 [2, 9] | EC50 [4, 10] | EC50 ([2]; Human alphaherpesvirus 3, MeWo, read-out: VZV Cell (EC50) MEWO 10%) | EC50 ([3]; Human betaherpesvirus 5, AD169, MRC5, read-out: HCMV Cell (EC50)) | EC50 ([4]; Human alphaherpesvirus 1, Vero, read-out: HSV1 Cell (EC50) VERO 10%)
223 nM | 139 nM | Cc1cnn(-c2cnc(C(=O)NCc3ccc(Cl)cc3)cc2O[C@H]2CCN3C(=O)OC[C@@H]3C2)c1 [Compound 105] | – | 1300 nM | – | 870 nM | 655 nM | – | – | –
189 nM | 105 nM | O=C(NCc1ccc(Cl)cn1)c1cc(O[C@H]2CCN3C(=O)OC[C@@H]3C2)c(-c2cnn(C(F)F)c2)cn1 [Compound 90] | 5990 nM | 1040 nM | 2550 nM | 737 nM | 853 nM | – | – | –
173 nM | 132 nM | O=C(NCc1ccc(Cl)cc1)c1cc(O[C@H]2CCN3C(=O)OC[C@@H]3C2)c(CCn2cccn2)cn1 [Compound 115] | – | 1720 nM | – | 900 nM | 1280 nM | – | – | –
32.5 nM | 17.4 nM | N#Cc1ccc(CNC(=O)c2cc(O[C@H]3CCN4C(=O)OC[C@@H]4C3)c(-c3cnn(C(F)F)c3)cn2)cc1 [Compound 91] | – | 239 nM | – | 265 nM | 239 nM | – | – | –
25.9 nM | 26.7 nM | N#Cc1ccc(CNC(=O)c2cc(O[C@H]3CCN4C(=O)OC[C@@H]4C3)c(-c3cnn(C(F)F)c3)cn2)c(F)c1 [Compound 84] | 345 nM | 350 nM | 463 nM | 66.8 nM | 520 nM | – | – | –
25.8 nM | 16.6 nM | O=C(NCc1ccc(Cl)cc1)c1cc(O[C@H]2CCN3C(=O)OC[C@@H]3C2)c(OCC(F)(F)F)cn1 [Compound 126] | 1460 nM | 572 nM | 1960 nM | 488 nM | 154 nM | – | – | –
19.2 nM | 9.04 nM | O=C(NCc1ccc(Cl)cc1)c1cc(O[C@H]2CCN3C(=O)OC[C@@H]3C2)c(N2CC(O)C2)cn1 [Compound 122] | 582 nM | 121 nM | 520 nM | – | – | – | – | –
16.2 nM | 2.6 nM | COC1CN(c2cnc(C(=O)NCc3ccc(Cl)cc3)cc2O[C@H]2CCN3C(=O)OC[C@@H]3C2)C1 [Compound 120] | 441 nM | 210 nM | 434 nM | – | – | – | – | –
14 nM | 15.7 nM | Cn1cc(-c2cnc(C(=O)NCc3ccc(Cl)cc3F)cc2O[C@H]2CCN3C(=O)OC[C@@H]3C2)cn1 [Compound 97] | – | 101 nM | – | 95.5 nM | 191 nM | – | – | –
13.6 nM | 13.8 nM | CC(C)(O)Cc1cnc(C(=O)NCc2ccc(Cl)cc2)cc1O[C@H]1CCN2C(=O)OC[C@@H]2C1 [Compound 111] | 1160 nM | 396 nM | 1120 nM | – | 719 nM | – | – | –
11.8 nM | 11 nM | CC(C)n1cc(-c2c[n+]([O-])c(C(=O)NCc3ccc(Cl)cc3)cc2O[C@H]2CCN3C(=O)OC[C@@H]3C2)cn1 [Compound 131] | – | 98.5 nM | – | 158 nM | 268 nM | – | – | –
1.42 nM | 1.99 nM | Cn1cc(-c2cnc(C(=O)NCc3ccc(C#N)c(F)c3)cc2O[C@H]2CCN3C(=O)OC[C@@H]3C2)cn1 [Compound 93] | 118 nM | 66.7 nM | 124 nM | – | 241 nM | – | – | –
